We go through 3 compounds from ChEMBL document CHEMBL1201862, “PubChem BioAssay data set” (2004).

Calls of active or inactive are those of the source.

By EC50 is commonly meant the concentration at which the effect is half-maximal. Usually AC50 stands for the concentration giving half of the maximal activity seen. The IC50 is the point on the concentration scale where inhibition reaches its midpoint.

The nature of experiment [1]: cytotoxicity in KRAS-transformed pancreatic duct cells, primary screen, cell-based, fluorescence, HTS (AID 431).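 Also: cell line used: HPDE-C7K.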 The format is functional. To be noted: Homo sapiens.
Experiment [2] in a line: growth suppression of beta-catenin-knockout colon cells, dose response, cell-based, HCT116, human colon tumor (AID 1045).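 Also: HCT116 colon tumor cells with beta catenin knocked out; cells exposed to compound for 60 hours.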 The experiment is classed as functional.
The target in experiment [3] is T1, Lysosomal acid glucosylceramidase (Homo sapiens, UniProt P04062).
T1 sequence (P04062 whole entry): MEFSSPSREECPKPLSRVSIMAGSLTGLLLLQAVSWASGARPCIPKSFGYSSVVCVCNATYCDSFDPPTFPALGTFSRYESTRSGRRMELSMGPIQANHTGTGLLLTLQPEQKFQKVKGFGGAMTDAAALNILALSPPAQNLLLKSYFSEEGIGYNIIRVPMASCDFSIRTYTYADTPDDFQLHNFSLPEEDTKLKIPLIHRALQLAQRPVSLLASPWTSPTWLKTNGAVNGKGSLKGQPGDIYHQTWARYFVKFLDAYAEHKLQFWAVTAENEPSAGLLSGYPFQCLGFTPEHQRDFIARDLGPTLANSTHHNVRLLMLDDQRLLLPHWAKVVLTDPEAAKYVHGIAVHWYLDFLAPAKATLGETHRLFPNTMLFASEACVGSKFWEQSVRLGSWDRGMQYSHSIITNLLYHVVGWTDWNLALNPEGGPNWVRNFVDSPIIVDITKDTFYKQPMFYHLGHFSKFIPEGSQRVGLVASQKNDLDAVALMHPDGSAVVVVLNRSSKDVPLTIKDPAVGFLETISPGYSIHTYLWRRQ
In words: Dose response cell-based high throughput screening assay to identify enhancers of beta-glucosidase activity. [Related pubchem assays: 784 ]. The format is functional.

The nature of experiment [4]: cytotoxicity in HPDE-C7 cells, cell-based, fluorescence, HTS (AID 430). The format is functional. To be noted: Homo sapiens.
A further experiment deals with Cytochrome P450 2D6 (Homo sapiens, UniProt P10635).
Experiment [5] is described as follows: growth suppression of PTEN-null colon cells, dose response, cell-based, HCT116 PTEN knockout (AID 1047).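 Also: HCT116 colon tumor cells with PTEN knocked out; cells exposed to compound for 60 hours before readout; potency for loss of cell viability measured by luminescence.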 The format is functional.
Experiment [6] in a line: microbe, parasite or virus in culture. Particulars: Mycobacterium tuberculosis. The experiment is classed as functional.
The target of experiment [7] is G-protein coupled receptor 55 (Homo sapiens, UniProt Q9Y2T6). Kind of experiment: GPR55 agonists via beta-arrestin recruitment, primary screen, imaging, U2OS cells, beta-arrestin-GFP redistribution (AID 1961). The format is functional. (In general: Arrestin recruitment assays detect the binding of arrestin to an activated receptor.)
Experiment [8] concerns the target T2, Dual specificity protein phosphatase 3 (Homo sapiens, UniProt P51452). In words: SAR VHR1 absorbance Assay for In Vitro dose response studies. [Related pubchem assays (depositor defined):AID1654, AID1661, AID1878, AID1992, AID2004].
The target of experiment [9] is T3, Tyrosine-protein phosphatase non-receptor type 7 (Homo sapiens, UniProt P35236).
T3 sequence (P35236 whole entry): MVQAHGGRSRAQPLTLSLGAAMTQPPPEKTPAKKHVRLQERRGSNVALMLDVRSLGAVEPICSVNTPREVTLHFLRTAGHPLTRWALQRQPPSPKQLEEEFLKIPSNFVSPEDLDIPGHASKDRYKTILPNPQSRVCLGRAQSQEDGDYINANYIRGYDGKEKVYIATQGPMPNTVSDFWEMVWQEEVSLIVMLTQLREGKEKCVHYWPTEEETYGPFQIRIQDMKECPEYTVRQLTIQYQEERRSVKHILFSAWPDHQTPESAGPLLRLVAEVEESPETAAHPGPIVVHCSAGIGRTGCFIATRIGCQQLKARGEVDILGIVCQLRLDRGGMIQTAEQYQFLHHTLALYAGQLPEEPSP
Kind of experiment: redox-dependent HePTP inhibition, mechanism study, biochemical, fluorescence (AID 2068). The experiment is classed as functional.

For experiment [10], the target named is T2, Dual specificity protein phosphatase 3. In words: SAR VHR1 Fluorescent Assay for In Vitro dose response studies. [Related pubchem assays (depositor defined):AID1654, AID1661, AID1878, AID1992, AID2004, AID2070, AID2085]. The format is functional.
Experiment [11] concerns the target T4, Dual specificity protein phosphatase 6 (Rattus norvegicus, UniProt Q64346).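 Also: confirmatory in vitro dose-response testing of MKP-3 inhibition; recombinant His-tagged MKP-3 made in E. coli BL21 with OMFP substrate.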
T4 sequence (Q64346 whole entry): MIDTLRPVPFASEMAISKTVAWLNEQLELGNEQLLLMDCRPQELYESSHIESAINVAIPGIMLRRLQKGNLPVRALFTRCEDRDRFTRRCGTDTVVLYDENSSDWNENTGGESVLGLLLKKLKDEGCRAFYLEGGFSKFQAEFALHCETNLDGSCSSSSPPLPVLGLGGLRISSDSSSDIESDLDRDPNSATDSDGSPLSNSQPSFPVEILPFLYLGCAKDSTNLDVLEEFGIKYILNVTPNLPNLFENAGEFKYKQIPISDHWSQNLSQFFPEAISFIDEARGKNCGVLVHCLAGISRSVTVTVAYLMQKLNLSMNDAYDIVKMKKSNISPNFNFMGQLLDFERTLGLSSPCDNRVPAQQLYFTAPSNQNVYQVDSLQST
The experiment is classed as functional.

For experiment [12], the target named is T5, Short transient receptor potential channel 4 (Mus musculus, UniProt Q9QUQ5).
T5 sequence (Q9QUQ5 whole entry): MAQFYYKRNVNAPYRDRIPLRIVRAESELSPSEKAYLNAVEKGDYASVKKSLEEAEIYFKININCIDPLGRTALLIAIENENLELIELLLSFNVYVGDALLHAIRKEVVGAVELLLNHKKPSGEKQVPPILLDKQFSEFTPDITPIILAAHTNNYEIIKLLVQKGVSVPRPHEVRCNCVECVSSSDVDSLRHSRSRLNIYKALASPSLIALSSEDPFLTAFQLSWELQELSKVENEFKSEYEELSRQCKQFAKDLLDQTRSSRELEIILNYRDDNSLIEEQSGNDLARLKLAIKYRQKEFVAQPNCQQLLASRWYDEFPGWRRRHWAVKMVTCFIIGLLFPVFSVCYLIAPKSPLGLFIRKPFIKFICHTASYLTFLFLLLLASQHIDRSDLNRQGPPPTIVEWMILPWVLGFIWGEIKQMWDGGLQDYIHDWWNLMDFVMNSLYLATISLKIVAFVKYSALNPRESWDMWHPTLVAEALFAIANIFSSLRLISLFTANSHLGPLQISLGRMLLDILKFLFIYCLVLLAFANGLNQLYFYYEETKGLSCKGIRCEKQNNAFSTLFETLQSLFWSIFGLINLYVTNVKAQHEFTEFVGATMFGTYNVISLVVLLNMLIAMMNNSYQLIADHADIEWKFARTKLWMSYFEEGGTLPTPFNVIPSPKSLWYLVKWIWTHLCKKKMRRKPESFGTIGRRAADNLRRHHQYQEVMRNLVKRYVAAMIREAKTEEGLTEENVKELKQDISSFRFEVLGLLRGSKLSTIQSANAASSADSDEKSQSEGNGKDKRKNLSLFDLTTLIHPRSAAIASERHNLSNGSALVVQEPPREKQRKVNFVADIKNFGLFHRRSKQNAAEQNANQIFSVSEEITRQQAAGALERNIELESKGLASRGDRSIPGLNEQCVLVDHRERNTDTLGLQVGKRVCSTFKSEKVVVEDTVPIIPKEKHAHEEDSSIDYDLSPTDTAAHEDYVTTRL
Kind of experiment: TRPC4 positive allosteric modulators, dose response, cell-based, HEK293 TRPC4/mu-opioid, Fluo-4 calcium, EC20 DAMGO (AID 434941).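 Also: HEK293 cells coexpressing TRPC4 and mu opioid receptor stimulated by EC20 DAMGO.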 The format is functional.
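For AC50 in this document: CYP2D6 member of a cytochrome P450 panel assay.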

T2 sequence (P51452 whole entry): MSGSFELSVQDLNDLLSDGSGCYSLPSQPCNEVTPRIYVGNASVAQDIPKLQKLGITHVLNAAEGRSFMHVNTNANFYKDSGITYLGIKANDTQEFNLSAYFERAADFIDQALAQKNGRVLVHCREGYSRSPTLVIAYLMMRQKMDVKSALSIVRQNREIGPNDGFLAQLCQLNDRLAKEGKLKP
G-protein coupled receptor 55, sequence (Q9Y2T6 whole entry): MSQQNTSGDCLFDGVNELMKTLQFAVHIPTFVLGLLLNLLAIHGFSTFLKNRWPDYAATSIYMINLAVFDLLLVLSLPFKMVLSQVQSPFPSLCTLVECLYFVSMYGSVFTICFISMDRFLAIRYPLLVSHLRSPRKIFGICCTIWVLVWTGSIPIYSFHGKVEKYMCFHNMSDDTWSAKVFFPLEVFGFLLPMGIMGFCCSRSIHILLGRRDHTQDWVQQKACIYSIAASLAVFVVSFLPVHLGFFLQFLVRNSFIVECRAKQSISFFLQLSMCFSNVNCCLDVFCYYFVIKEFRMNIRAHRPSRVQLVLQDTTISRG
Cytochrome P450 2D6, sequence (P10635 whole entry): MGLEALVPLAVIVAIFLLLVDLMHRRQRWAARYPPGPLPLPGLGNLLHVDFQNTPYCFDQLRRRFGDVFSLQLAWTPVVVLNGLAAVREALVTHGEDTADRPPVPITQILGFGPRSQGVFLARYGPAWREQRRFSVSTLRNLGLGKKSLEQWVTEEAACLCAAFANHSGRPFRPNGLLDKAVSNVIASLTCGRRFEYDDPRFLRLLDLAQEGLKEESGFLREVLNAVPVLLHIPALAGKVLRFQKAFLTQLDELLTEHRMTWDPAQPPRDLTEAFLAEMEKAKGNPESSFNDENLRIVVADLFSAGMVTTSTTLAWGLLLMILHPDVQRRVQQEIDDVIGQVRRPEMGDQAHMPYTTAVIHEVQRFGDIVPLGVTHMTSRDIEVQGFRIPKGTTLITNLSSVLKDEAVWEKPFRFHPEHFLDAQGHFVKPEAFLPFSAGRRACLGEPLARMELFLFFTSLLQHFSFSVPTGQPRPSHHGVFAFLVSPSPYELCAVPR

On to `FC(F)(F)c1ccc(N2CCOCC2)c(Nc2nc3ccccc3n3cnnc23)c1`, for which the concentration for a half-maximal effect (EC50) was 5.98 µM (active) in experiment [1]; 16.5 µM (active) in [2]; > 50 µM (not active) in experiment [3]; 5.89 µM (active) in [4]; 13.5 µM (active) in experiment [5]; 4.18 µM (active) in experiment [7]. Further, on Cytochrome P450 2D6, the AC50 was 28.2 µM (inconclusive). Also, the CC50 in [6] is 27.4 µM (active).
For `S=C(c1cn(CCOc2ccccc2)c2ccccc12)N1CCCCC1`, the IC50 was > 100 µM (inactive) in experiment [8], 31.7 µM (active) in experiment [9], > 100 µM (inactive) in [10] and > 100 µM (inactive) in [11].
As to `CC1Cc2ccccc2N1C(=O)CSc1nc2c(c(=O)n(C)c(=O)n2C)n1Cc1ccc(F)cc1` (stereo not drawn), the concentration for a half-maximal effect (EC50) in experiment [12] is 1.33 µM (active).
